In patent US10450306B2, “Isoxazole analogs as FXR agonists and methods of use thereof” (Enanta Pharmaceuticals, Inc., priority 2016, dated 2019):

Molecular target: T1, human FXR (NR1H4) (Homo sapiens, UniProt Q96RI1)
T1 construct: host or cells: CHO (Chinese hamster ovary) reporter cells
T1 sequence (Q96RI1 1-486): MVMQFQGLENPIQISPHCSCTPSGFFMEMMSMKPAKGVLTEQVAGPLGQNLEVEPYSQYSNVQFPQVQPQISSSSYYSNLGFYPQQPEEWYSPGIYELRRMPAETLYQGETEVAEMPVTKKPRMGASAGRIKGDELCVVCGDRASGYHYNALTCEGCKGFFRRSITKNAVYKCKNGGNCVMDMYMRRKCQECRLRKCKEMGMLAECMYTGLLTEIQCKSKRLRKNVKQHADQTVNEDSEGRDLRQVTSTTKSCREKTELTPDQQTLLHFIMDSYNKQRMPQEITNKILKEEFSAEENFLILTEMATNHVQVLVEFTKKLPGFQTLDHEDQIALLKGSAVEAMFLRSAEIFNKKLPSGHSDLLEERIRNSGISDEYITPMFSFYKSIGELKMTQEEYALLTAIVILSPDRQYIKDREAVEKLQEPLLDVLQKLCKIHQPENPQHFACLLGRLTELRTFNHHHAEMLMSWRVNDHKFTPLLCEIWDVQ
Assay: Human FXR (NR1H4) Assay: Gal4 promoter driven luciferase reporter transactivation in CHO cells (Indigo Bioscience kit IB00601); as to Efficacy (%): efficacy normalized to CDCA set as 100%
Format: cell-based
Conditions: for Emax: CHO, read-out: Efficacy (%); for EC50: Human FXR (NR1H4) reporter assay, potency ranges
Procedure, shortened: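 CHO reporter cells expressing human FXR with an FXR-responsive promoter-driven luciferase were treated with compound dose series at 0.2% DMSO for 22 h at 37 °C. Luciferase activity was then read by luminescence as the measure of FXR activation.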

Row | Compound | Emax [%] | EC50 [nM]
1 | CN(Cc1c(-c2c(Cl)cccc2Cl)noc1C1CC1)[C@H]1C[C@H]2CC[C@@H](C1)N2c1nc2ccc(C(=O)NS(=O)(=O)C3CC3)cc2s1 [Example 292] | 212 | 1 to 100
2 | CC1(S(=O)(=O)NC(=O)c2cc(C3CC3)c3nc(N4C5CCC4CC(NCc4c(-c6c(Cl)cccc6Cl)noc4C4CC4)C5)sc3c2)CC1 (stereo not shown) [Example 400-35] | 117 | 1 to 100
3 | COC(=O)c1cc2sc(N3C4CCC3CC(NCc3c(-c5c(Cl)cccc5Cl)noc3C3CC3)C4)nc2cc1OC (stereo not shown) [Example 200-7] | 74.5 | 1 to 100
4 | [2H]C([2H])([2H])C1(S(=O)(=O)NC(=O)c2cc(F)c3nc(N4C5CCC4CC(NCc4c(-c6c(Cl)cccc6Cl)noc4C4CC4)C5)sc3c2)CC1 (stereo not shown) [Example 296] | 184 | < 1
5 | CC1(S(=O)(=O)NC(=O)c2ccc3nc(N4C5CCC4CC(NCc4c(-c6c(Cl)cccc6Cl)noc4C4CC4)C5)oc3c2)CC1 (stereo not shown) [Example 302] | 62 | 1 to 100
6 | O=C(NS(=O)(=O)C1CC1)c1ccc2nc(N3C4CCC3CC(NCc3c(-c5ccccc5C(F)(F)F)noc3C3CC3)C4)oc2c1 (stereo not shown) [Example 1424] | 148 | 1 to 100
7 | O=C(NS(=O)(=O)c1ccccc1)c1ccc2nc(N3C4CCC3CC(NCc3c(-c5c(Cl)cccc5Cl)noc3C3CC3)C4)sc2c1 (stereo not shown) [Example 257] | 203 | 1 to 100
8 | O=C(O)c1ccc2nc(N3C4CCC3CN(Cc3c(-c5c(Cl)cccc5Cl)noc3C3CC3)C4)sc2c1 [Example 176] | 228 | 100 to 1000
9 | CC1(S(=O)(=O)NC(=O)c2ccc3nc(N4C5CCC4CC(N(C=O)Cc4c(-c6c(Cl)cccc6Cl)noc4C4CC4)C5)sc3c2)CC1 (stereo not shown) [Example 294] | 130 | > 1000
10 | O=C(NS(=O)(=O)C1CC1)c1cc(F)c2nc(N3CCC(NCc4c(-c5c(Cl)cccc5Cl)noc4C4CC4)CC3)sc2c1 [Example 400-9] | 37.5 | 100 to 1000
11 | CCOC(=O)c1ccc2nc(N(C)C3CCC(OCc4c(-c5c(Cl)cccc5Cl)noc4C4CC4)CC3)sc2c1 (stereo not shown) [Example 169] | 38 | > 1000
12 | O=C(O)c1cc2sc(N3C4CCC3CC(NCc3c(-c5c(Cl)cccc5Cl)noc3C3CC3)C4)nc2cc1-c1ccccc1 (stereo not shown) [Example 200-24] | 96.2 | 1 to 100
13 | CCOc1cc(C(=O)OC)cc2sc(N3C4CCC3CC(NCc3c(-c5c(Cl)cccc5Cl)noc3C3CC3)C4)nc12 (stereo not shown) [Example 200-9] | 81 | 1 to 100
14 | CCOC(=O)c1ccc2nc(N3[C@@H]4CC[C@H]3C[C@@H](N(C)Cc3c(-c5c(Cl)cccc5Cl)noc3C3CC3)C4)sc2c1 [Example 165, ethyl 2-((1R,3R,5S)-3-(((5-cyclopropyl-3-(2,6-dichlorophenyl)isoxazol-4-yl)methyl)(methyl)amino)-8-azabicyclo[3.2.1]octan-8-yl)benzo[d]thiazole-6-carboxylate] | 236 | 1 to 100
15 | O=C(NS(=O)(=O)C1CC1)c1cc(F)c2nc(N3CCC(NCc4c(-c5ccccc5OC(F)(F)F)noc4C4CC4)CC3)sc2c1 [Example 900-3] | 44.8 | 100 to 1000
16 | COC(=O)c1cc(OC(C)C)c2nc(N3CCC(NCc4c(-c5c(Cl)cccc5Cl)noc4C4CC4)CC3)sc2c1 [Example 200-3] | 35 | 100 to 1000
17 | O=C(O)c1cc(F)c2nc(N3C4CCC3CC(NCc3c(-c5ccccc5OC(F)(F)F)noc3C3CC3)C4)sc2c1 (stereo not shown) [Example 404] | 88 | 1 to 100
18 | CC(C)Oc1cc(C(=O)NS(=O)(=O)C2(C)CC2)cc2sc(N3CCC(NCc4c(-c5ccccc5OC(F)(F)F)noc4C4CC4)CC3)nc12 [Example 900-6] | 112 | 1 to 100

Row | Compound | Emax [%] | EC50 [nM]
19 | CC1(S(=O)(=O)NC(=O)c2cc3sc(N4C5CCC4CC(NCc4c(-c6c(Cl)cccc6Cl)noc4C4CC4)C5)nc3c3ccccc23)CC1 (stereo not shown) [Example 400-33] | 91 | < 1
20 | O=C(NS(=O)(=O)N1CCCC1)c1cc(F)c2nc(N3CCC(NCc4c(-c5c(Cl)cccc5Cl)noc4C4CC4)CC3)sc2c1 [Example 400-7] | 91 | 1 to 100
21 | CC(C)(C)c1ccc(S(=O)(=O)NC(=O)c2ccc3nc(N4C5CCC4CC(NCc4c(-c6c(Cl)cccc6Cl)noc4C4CC4)C5)sc3c2)cc1 (single isomer, unassigned) [Example 262] | 289 | < 1
22 | CC(C)S(=O)(=O)NC(=O)c1ccc2nc(N3C4CCC3CC(NCc3c(-c5c(Cl)cccc5Cl)noc3C3CC3)C4)sc2c1 (stereo not shown) [Example 237] | 226 | 1 to 100
23 | O=C(O)c1ccc2nc(N3CCC(NCc4c(-c5c(Cl)cccc5Cl)noc4C4CC4)CC3)sc2c1 [Example 174] | 132 | 1 to 100
24 | O=C(NS(=O)(=O)N1CCCC1)c1ccc2nc(N3C4CCC3CC(NCc3c(-c5c(Cl)cccc5Cl)noc3C3CC3)C4)sc2c1 (stereo not shown) [Example 227] | 256 | < 1
25 | COc1cc(C(=O)O)cc2sc(N3C4CCC3CC(NCc3c(-c5c(Cl)cccc5Cl)noc3C3CC3)C4)nc12 (stereo not shown) [Example 6] | 153 | < 1
26 | CC(C)Oc1cc(C(=O)NS(=O)(=O)N2CCCCC2)cc2sc(N3C4CCC3CC(NCc3c(-c5c(Cl)cccc5Cl)noc3C3CC3)C4)nc12 (stereo not shown) [Example 400-20] | 43.6 | 1 to 100
27 | COC(=O)c1cc(OC(C)C)c2nc(N3C4CCC3CC(NCc3c(-c5ccccc5C(F)(F)F)noc3C3CC3)C4)sc2c1 (stereo not shown) [Example 1403] | 119 | 1 to 100
28 | Cc1cc2nc(N3C4CCC3CC(NCc3c(-c5c(Cl)cccc5Cl)noc3C3CC3)C4)sc2cc1C(=O)NS(=O)(=O)N1CCCCC1 (stereo not shown) [Example 400-12] | 115 | < 1
29 | O=C(O)c1ccc2nc(N3C4CCC3CC(NCc3c(-c5c(Cl)cccc5Cl)noc3C3CC3)C4)oc2c1 (stereo not shown) [Example 20] | 56 | 1 to 100
30 | COC(=O)c1cc(F)c2nc(N3C4CCC3CC(NCc3c(-c5ccccc5OC(F)(F)F)noc3C3CC3)C4)sc2c1 (stereo not shown) [Example 403] | 61 | 1 to 100
31 | CN(c1nc2ccc(C(=O)NS(=O)(=O)N(C)C)cc2s1)C1CCC(OCc2c(-c3c(Cl)cccc3Cl)noc2C2CC2)CC1 (stereo not shown) [Example 279] | 158 | 100 to 1000
32 | CC(C)Oc1cc(C(=O)NS(=O)(=O)C2(C)CC2)cc2sc(N3C4CCC3CC(NCc3c(-c5ccccc5C(F)(F)F)noc3C3CC3)C4)nc12 (stereo not shown) [Example 1402] | 136 | 1 to 100
33 | CC(C)Oc1cc(C(=O)NS(=O)(=O)C2(C)CC2)cc2sc(N3C4CCC3CC(NCc3c(-c5c(F)cccc5F)noc3C3CC3)C4)nc12 (stereo not shown) [Example 1428] | 86 | 1 to 100
34 | CC1(S(=O)(=O)NC(=O)c2ccc3nc(N4C5CCC4CC(NCc4c(-c6ccccc6C(F)(F)F)noc4C4CC4)C5)oc3c2)CC1 (stereo not shown) [Example 1425] | 74 | 100 to 1000
35 | CC(C)Oc1cc(C(=O)NS(=O)(=O)C2(C)CC2)cc2sc(N3C4CCC3CC(NCc3c(-c5c(Cl)cccc5Cl)noc3C3CC3)C4)nc12 (stereo not shown) [Example 400-18] | 98 | < 1
